Assay results reported in article PMC12439338, “Designer amphiphilic helical peptide-decorated nanomicelles enable simultaneous inflammation control and triple-destruction of bacteria for treating bacterial pneumonia and sepsis” (Theranostics, 2025).
Where a SMILES comes first, the peptide text is derived from it.

How the values were obtained:
[1] = right after preparation and overnight storage
[2] = system: bacteria-induced sepsis mouse models; conditions: cited from earlier work
From the text: The gene expressions of TLR2 and TLR4 in these patients were also correlated with that of the inflammatory cytokine IL1B (Figure S1C-F). These analyses together with reported literatures indeed confirmed the TLR2 and TLR4 up-regulation as a strong pathogenic factor in sepsis patients. Moreover, studies have shown that TLR4 knockout mice ...

[3] = system: LPS / TLR4; set-up: method as in 3 sources, ref 25 = [25]; PMID 34183393; doi:10.1073/pnas.2101721118; 25 Schromm AB Paulowski L Kaconis Y Kopp F Koistinen M Donoghue A Cathelicidin and PMB neutralize endotoxins by multifactorial mechanisms including LPS interaction and targeting of host cell membranes ||| ref 18, 19 = [18]; PMID 17237433; doi:10.4049/jimmunol.178.3.1829; 18 Di Nardo A Braff MH Taylor KR Na C Granstein RD McInturff JE Cathelicidin antimicrobial peptides block dendritic cell TLR4 activation and allergic contact sensitization J Immunol 2007 178 1829 34 1 || [19]; PMID 32582207; doi:10.3389/fimmu.2020.01137; 19 Scheenstra MR van Harten RM Veldhuizen EJA Haagsman HP Coorens M Cathelicidins modulate TLR-activation and inflammation Front Immunol 2020 11 1137 32582207 10.3389/fimmu.2020.01137 PMC7296178 ||| ref 44 = [44]; PMID 31364070; doi:10.1007/978-3-030-16373-0_4; 44 Li Z Velkov T Polymyxins: mode of action Adv Exp Med Biol 2019 1145 37 54 31364070 10.1007/978-3-030-16373-0_4; conditions: cited from earlier work
From the text: Bioactive peptides are functional biopolymers that can be de novo designed or derived from nature with immunoregulatory and antimicrobial activities. For example, naturally existed antimicrobial peptides (AMPs) are key players in the host-defense mechanism against the invasion of various pathogens including bacteria, fungi, viruses and parasites, [17], through the disruption of microorganism membranes. This working mechanism makes AMPs more advantageous over traditional antibiotics due to less chance for the development of drug resistance. In addition to elimination of microbes, some AMPs ... || Polymyxin B (PMB), a cationic cyclic peptide, is one of the last-line antibiotics to treat drug-resistant bacterial infection in the clinic. […] To assess the potency of our newly designed R18, we made the head-to-head comparison between R18 and polymyxin B on their TLR4 and TLR2 inhibitory activities.

[4] = system: TLR4/MD-2 complex; set-up: method as in PMID 35238667; conditions: cited from earlier work
[5] = system: TLR4 signaling (LPS-induced NF-κB/AP-1 and IRF activation) in THP-1 reporter cell-derived macrophages; test: NF-κB/AP-1 and IRF reporter assay, LPS (TLR4); assay type: cell-based, human
Protocol: (§1) Cell culture. THP-1 cells were cultured in the RPMI 1640 complete medium supplemented with 10% FBS, 2 mM L-glutamine, and 1 mM sodium pyruvate, in a cell incubator containing 5% CO2 at 37°C. Zeocin (200 μg/mL or 100 μg/mL) was added to the complete medium as the selection pressure for THP-1-XBlue or THP-1-ISG reporter cells. Cells were seeded into a 96-well plate (1×10^5 cells/well) or a 24-well plate (5×10^5 cells/well), and differentiated into macrophages with PMA (50 ng/mL) for 24 h. […] The culture medium supernatants and cell lysates were collected for further analysis.
(§2) NF-κB/AP-1 and IRF reporter assay. THP-1-XBlue and THP-1-ISG reporter cells were used to assess the activation of NF-κB/AP-1 and IRF, respectively. After treatments, the culture medium (20 μL per well) was collected and mixed with the Quanti-Blue solution (180 μL) in a clean 96-well plate, which was incubated for 1-2 h at 37°C until the solution color turned into dark purple. The solution absorption at 655 nm was acquired on a microplate reader (TECAN, Mannedorf, Zurich, Switzerland).

[6] = system: TLR2 signaling (Pam3CSK4-induced NF-κB/AP-1 activation) in THP-1 reporter cell-derived macrophages; test: NF-κB/AP-1 reporter assay, Pam3CSK4 (TLR2); assay type: cell-based, human; conditions: 2.5, 5 and 10 μM, Pam3CSK4 10 ng/mL, co-treatment, N = 3
Protocol: as §1, §2

[7] = cited from earlier work
From the text: (§3) The fast-increasing cases of sepsis or pneumonia caused by multidrug-resistant Gram-negative bacteria in the clinics have become a global health emergency, [30]. Currently, the peptide-based polymyxin B is the last line of antibiotics to fight multidrug-resistant Gram-negative bacteria. […] Th ...

[8] = system: Gram-positive bacterial infection; conditions: cited from earlier work
From the text: as §3

Compound: CC(C)C[C@H](NC(=O)[C@H](CC(C)C)NC(=O)[C@H](CCCNC(=N)N)NC(=O)[C@H](Cc1c[nH]c2ccccc12)NC(=O)[C@H](CC(C)C)NC(=O)[C@H](CCCNC(=N)N)NC(=O)[C@H](CCCNC(=N)N)NC(=O)[C@H](Cc1c[nH]c2ccccc12)NC(=O)[C@H](CC(C)C)NC(=O)[C@H](CCCNC(=N)N)NC(=O)[C@H](CC(C)C)NC(=O)[C@H](Cc1c[nH]c2ccccc12)NC(=O)[C@H](CCCNC(=N)N)NC(=O)[C@H](CCCNC(=N)N)NC(=O)[C@H](CC(C)C)NC(=O)[C@H](Cc1c[nH]c2ccccc12)NC(=O)[C@@H](N)CCCNC(=N)N)C(=O)N[C@@H](CCCNC(=N)N)C(N)=O [R18] (H-RWLRRWLRLWRRLWRLLR-NH2)
- stability and dispersibility in PBS [1]: tended to form milky colloidal suspensions and precipitate overnight

Compound: CCOC(=O)C1=CCCC[C@H]1S(=O)(=O)Nc1ccc(F)cc1Cl [TAK-242]
- disease severity in sepsis mouse models [2]: successfully reduced the disease severity in bacteria-induced sepsis mouse models

Compound: LL-37: human host-defense peptide cathelicidin
- modulation of TLR4-triggered responses via LPS binding [3]: capable of modulating TLR4-triggered inflammatory responses

Compound: papiliocin
- binding to TLR4/MD-2 [4]: directly bind to the TLR4/MD-2 complex in order to block LPS-TLR4 interactions

Compound: polymyxin B
- inhibition of LPS-induced NF-κB/AP-1 and IRF activation [5]: able to effectively inhibit LPS-induced activation
- inhibition of Pam3CSK4-induced NF-κB/AP-1 activation [6]: had no effect on TLR2 inhibition
- TLR4-mediated inflammation inhibition by antagonizing LPS [3]: capable of inhibiting TLR4-mediated inflammatory responses by antagonizing LPS
- TLR4 antagonism by LPS neutralization [3]: TLR4 antagonist by neutralizing the bacterial product LPS
- clinical toxicity [7]: has neurotoxicity and often causes some serious kidney problems
- effectiveness against Gram-positive bacterial infection and inflammation [8]: not effective against Gram-positive bacterial infection and the associated inflammation
